By solubility is commonly meant how much of the substance goes into solution per volume.

The target of series [1] is T1, human recombinant VEGF (Homo sapiens, UniProt P15692).
T1 construct: purchased R&D Systems
T1 sequence (P15692 1-191 isoform P15692-4): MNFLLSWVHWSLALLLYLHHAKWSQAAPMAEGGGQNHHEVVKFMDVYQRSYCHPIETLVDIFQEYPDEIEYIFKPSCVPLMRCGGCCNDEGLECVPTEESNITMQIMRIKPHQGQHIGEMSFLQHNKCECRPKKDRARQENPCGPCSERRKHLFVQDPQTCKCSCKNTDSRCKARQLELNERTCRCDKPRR
The experiment in a line: VEGF binding competitive ELISA assay. The note with it: compared with BEV stock positive control. How it is done:
Spray-dried powders or as-received API were reconstituted to a 4 mg/mL active in the buffered saline and allowed to dissolve for 60 min. […] Standards were prepared according to the kit protocol.
After incubation, 50 µL of the assay diluent was added to each of the wells of the supplied plate. A total of 200 µL each of the sample (in triplicate) and standards were added to respective wells and incubated for 2 h at ambient temperature. The plate was washed three times with 400 µL of the kit’s wash buffer, then 200 µL of the VEGF-conjugate was added. The plate was incubated for another 2 h, then washed again three times, as previously. A 1:1 mixture of the kit’s color reagent A and B were mixed, then 200 µL was added to each well. After a 30 min incubation at ambient temperature, 50 µL of stop solution was added to each well. The absorbances were read on an M5e plate reader (Molecular Devices, San Jose, CA, USA) using a 450 nm detection wavelength and 540 nm as the blank wavelength for baseline correction. The quantified concentration of unbound VEGF in pg/mL was reported. All samples were analyzed in triplicate.
Briefly, reconstituted simul-spray powders were incubated with VEGF protein in the assay buffer. Next, the quantity of unbound VEGF in the solution was quantified by a commercially available VEGF ELISA assay kit.
(In general: ELISA stands for enzyme-linked immunosorbent assay.)

A short description of series [2]: Chemical stability in solution. Conditions: bevacizumab and cisplatin in the same aqueous solution. It is filed as physicochemical.
The conditions of series [3]: ligand exchange; cited from earlier work.
Series [4] in a line: Equilibrium solubility of API and excipients in spray solvents (TGA of saturated supernatant). As for the experimental part:
The solutions were centrifuged to remove excess solids. A total of 50 µL of the supernatant was pipetted into an aluminum pan and placed into a Thermogravimetric Analyzer (Discovery TGA, TA Instruments, New Castle, DE, USA). The sample was heated to 130 °C at a ramp rate of 50 °C/min and then held isothermal for 10 min to allow all of the solvent to evaporate. The final mass of the sample (of the known 50 µL volume) was recorded and used to determine the solubility in mg/mL. Samples were measured in triplicate.
Solubility screening was performed on the three small molecule APIs and the L-leucine excipient in water, 90/10 methanol/water and 80/20 ethanol/water by weight. These solvent ratios were chosen to maximize the solubility of L-leucine and API. Additional details on solubility and formulation selection can be found in the Supplementary Information.

Setting [5] is: water, thermodynamic from solid, Solubility, mg/mL in Water.
Where [6] appears, read: organic solvent or mixture, thermodynamic from solid, Solubility, mg/mL in 90/10 Methanol/Water.

In brackets after ≈: the same amount, converted by molar mass. Where only a bound is given, the exact number is not on record here.

For the compound `N.N.[Cl][Pt][Cl]` [CP, cisplatin], in series [1], the “VEGF inhibition (in words)” value is “do not inhibit VEGF measurably”. Besides, the “Chemical stability when co-dissolved” value in series [2] is recorded as “not chemically stable when co-dissolved in the same solution”. The “Chemical stability in aqueous solution” value in series [3] was “not chemically stable in an aqueous solution for longer than a few hours”.

As for `C#Cc1cccc(Nc2ncnc3cc(OCCOC)c(OCCOC)cc23)c1` [ERL, erlotinib], the solubility in series [4] (80/20 ethanol/water by weight, organic solvent or mixture, thermodynamic from solid, Solubility, mg/mL in 80/20 Ethanol/Water, 80/20 ethanol/water by mass) is under 1000 µg/mL; in series [4] (90/10 methanol/water by weight, organic solvent or mixture, thermodynamic from solid, Solubility, mg/mL in 90/10 Methanol/Water, 90/10 methanol/water by mass), 25000 µg/mL (≈ 63.5 mM); in series [4] (water, Solubility in water at neutral pH, water at neutral pH), under 100 µg/mL; in series [4] (setting [5]), under 1000 µg/mL. For the same compound, the “VEGF inhibition (in words)” value in series [1] is on record as “do not inhibit VEGF measurably”.

`CC(C)C[C@H](N)C(=O)O` [L-Leucine, L-leucine]: the “Solubility, mg/mL in 80/20 Ethanol/Water” value in series [4] is on record as 2.0 mg/mL (≈ 15.2 mM). Also, the solubility amounted to 1700 µg/mL (≈ 13 mM) in series [4] (organic solvent or mixture, thermodynamic from solid, Solubility, mg/mL in 80/20 Ethanol/Water); 2500 µg/mL (≈ 19.1 mM) in series [4] (setting [6]); 21000 µg/mL (≈ 160 mM) in series [4] (setting [5]).

Turning to `CC(=O)O[C@H]1C(=O)[C@@]2(C)[C@H]([C@H](OC(=O)c3ccccc3)[C@]3(O)C[C@H](OC(=O)[C@H](O)[C@@H](NC(=O)c4ccccc4)c4ccccc4)C(C)=C1C3(C)C)[C@]1(OC(C)=O)CO[C@@H]1C[C@@H]2O` [PTX, paclitaxel], in series [4], the “Solubility in water at neutral pH” value is given as “sparingly soluble”. For the same compound, the solubility in series [4] (setting [6]) and in series [4] (setting [5]) was under 1000 µg/mL each time. The “VEGF inhibition (in words)” value in series [1] is “do not inhibit VEGF measurably”.

The values are drawn from publication PMC9227944, “Simultaneous Spray Drying for Combination Dry Powder Inhaler Formulations” (Pharmaceutics, 2022).
